Assay results from patent US20260258038A1 (priority 2023, published 2026).

How the values were obtained:
Phytophthora infestans = assay: whole plant or invertebrate; assay type: in vivo; details: in Solanum lycopersicum, foliar, read-out: control of Phytophthora infestans (percent disease control compared to untreated)
Pythium ultimum = Pythium ultimum / liquid culture (seedling damping off); assay type: cell-based; details: Globisporangium ultimum, liquid culture in PDB, 24° C., 2-3 days after application, read-out: control of Pythium ultimum (inhibition of growth, photometric)
Description: Pythium ultimum/Liquid Culture (Seedling Damping Off)
Mycelia fragments and oospores of a newly grown liquid culture of the fungus are directly mixed into nutrient broth (PDB potato dextrose broth). After placing a (DMSO) solution of test compound into a microtiter plate (96-well format), the nutrient broth containing the fungal mycelia/spore mixture is added. The test plates are incubated at 24° C. and the inhibition of growth is determined photometrically 2-3 days after application.

Plasmopara viticola = assay: whole plant or invertebrate; assay type: in vivo; details: foliar, read-out: control of Plasmopara viticola (percent disease control compared to untreated)

SMILES	pest or weed control at 200 ppm (Phytophthora infestans) [%]	inhibition at 20 ppm (Pythium ultimum) [%]	pest or weed control at 200 ppm (Plasmopara viticola) [%]
COC(=O)Nc1ccc(-c2cnc3ccc(N(CCC#N)C(=O)c4ccc(F)c(OC)c4)cn23)cn1 [Compound 62, methyl N-[5-[6-[2-cyanoethyl-(4-fluoro-3-methoxy-benzoyl)amino]imidazo[1,2-a]pyridin-3-yl]-2-pyridyl]carbamate]	≥ 80	≥ 80	
C=CCCc1cc(N(C)C(=O)c2ccc(F)c(OC)c2)cn2c(-c3ccc(NC(=O)OC)nc3)cnc12 [Compound 58, methyl N-[5-[8-but-3-enyl-6-[(4-fluoro-3-methoxy-benzoyl)-methyl-amino]imidazo[1,2-a]pyridin-3-yl]-2-pyridyl]carbamate]	≥ 80	≥ 80	≥ 80
COC(=O)Nc1ccc(-c2cnc3c(Br)cc(N(C)C(=O)c4ccc(F)c(OC)c4)cn23)cn1 [Compound 60, methyl N-[5-[8-bromo-6-[(4-fluoro-3-methoxy-benzoyl)-methyl-amino]imidazo[1,2-a]pyridin-3-yl]-2-pyridyl]carbamate]	≥ 80	≥ 80	≥ 80
COC(=O)Nc1ccc(-c2cnc3c(C)cc(N(C)C(=O)c4ccc(F)cc4)cn23)cn1 [Compound 45, methyl N-[5-[6-[(4-fluorobenzoyl)-methyl-amino]-8-methyl-imidazo[1,2-a]pyridin-3-yl]-2-pyridyl]carbamate]	≥ 80	≥ 80	≥ 80
CCOc1cc(C(=O)N(C)c2cc(C)c3ncc(-c4ccc(NC(=O)OC)nc4)n3c2)ccc1C#N [Compound 10, methyl N-[5-[6-[(4-cyano-3-ethoxy-benzoyl)-methyl-amino]-8-methyl-imidazo[1,2-a]pyridin-3-yl]-2-pyridyl]carbamate]	≥ 80	≥ 80	≥ 80
CCOc1cc(C(=O)N(C)c2ccc3ncc(-c4ccc(NC(=O)OC)nc4)n3c2)ccc1F [Compound 23, methyl N-[5-[6-[(3-ethoxy-4-fluoro-benzoyl)-methyl-amino]imidazo[1,2-a]pyridin-3-yl]-2-pyridyl]carbamate]	≥ 80	≥ 80	
COC(=O)Nc1ccc(-c2cnc3c(C)cc(N(C)C(=O)c4ccc(Cl)c(C)c4)cn23)cn1 [Compound 41, methyl N-[5-[6-[(4-chloro-3-methyl-benzoyl)-methyl-amino]-8-methyl-imidazo[1,2-a]pyridin-3-yl]-2-pyridyl]carbamate]	≥ 80	≥ 80	≥ 80
COC(=O)Nc1ccc(-c2cnc3c(C4CC4)cc(N(C)C(=O)c4ccc(F)c(OC)c4)cn23)cn1 [Compound 56, methyl N-[5-[8-cyclopropyl-6-[(4-fluoro-3-methoxy-benzoyl)-methyl-amino]imidazo[1,2-a]pyridin-3-yl]-2-pyridyl]carbamate]	≥ 80	≥ 80	≥ 80
COC(=O)Nc1ccc(-c2cnc3ccc(N(C)C(=O)c4ccc(Cl)cc4)cn23)cc1 [Compound 27, methyl N-[4-[6-[(4-chlorobenzoyl)-methyl-amino]imidazo[1,2-a]pyridin-3-yl]phenyl]carbamate]		≥ 80	≥ 80
COC(=O)Nc1ccc(-c2cnc3c(C)cc(N(C)C(=O)c4cccc(OC)c4)cn23)cn1 [Compound 53, methyl N-[5-[6-[(3-methoxybenzoyl)-methyl-amino]-8-methyl-imidazo[1,2-a]pyridin-3-yl]-2-pyridyl]carbamate]	≥ 80	≥ 80	≥ 80
COC(=O)Nc1ccc(-c2cnc3ccc(N(C)C(=O)c4ccc(C#N)c(C)c4)cn23)cn1 [Compound 17, methyl N-[5-[6-[(4-cyano-3-methyl-benzoyl)-methyl-amino]imidazo[1,2-a]pyridin-3-yl]-2-pyridyl]carbamate]		≥ 80	
COC(=O)Nc1ccc(-c2cnc3c(C)cc(N(C)C(=O)c4ccnc(OC)c4)cn23)cn1 [Compound 3, methyl N-[5-[6-[(2-methoxypyridine-4-carbonyl)-methyl-amino]-8-methyl-imidazo[1,2-a]pyridin-3-yl]-2-pyridyl]carbamate]	≥ 80	≥ 80	
COCN(C(=O)c1ccc(F)cc1)c1ccc2ncc(-c3ccc(NC(=O)OC)nc3)n2c1 [Compound 24, methyl N-[5-[6-[(4-fluorobenzoyl)-(methoxymethyl)amino]imidazo[1,2-a]pyridin-3-yl]-2-pyridyl]carbamate]	≥ 80	≥ 80	
COC(=O)Nc1ccc(-c2cnc3ccc(N(C)C(=O)c4ccc(C#N)c(F)c4)cn23)cn1 [Compound 15, methyl N-[5-[6-[(4-cyano-3-fluoro-benzoyl)-methyl-amino]imidazo[1,2-a]pyridin-3-yl]-2-pyridyl]carbamate]		≥ 80	
COCCN(C(=O)c1ccc(F)c(OC)c1)c1ccc2ncc(-c3ccc(NC(=O)OC)nc3)n2c1 [Compound 14, methyl N-[5-[6-[(4-fluoro-3-methoxy-benzoyl)-(2-methoxyethyl)amino]imidazo[1,2-a]pyridin-3-yl]-2-pyridyl]carbamate]		≥ 80	
COC(=O)Nc1ccc(-c2cnc3c(NC(C)=O)cc(N(C)C(=O)c4ccc(F)c(OC)c4)cn23)cn1 [Compound 59, methyl N-[5-[8-acetamido-6-[(4-fluoro-3-methoxy-benzoyl)-methyl-amino]imidazo[1,2-a]pyridin-3-yl]-2-pyridyl]carbamate]	≥ 80	≥ 80	
COC(=O)Nc1ccc(-c2cnc3c(C)cc(N(C)C(=O)c4cccnc4SC)cn23)cn1 [Compound 46, methyl N-[5-[8-methyl-6-[methyl-(2-methylsulfanylpyridine-3-carbonyl)amino]imidazo[1,2-a]pyridin-3-yl]-2-pyridyl]carbamate]	≥ 80		
COC(=O)Nc1ccc(-c2cnc3ccc(N(CC#N)C(=O)c4ccc(F)c(OC)c4)cn23)cn1 [Compound 7, methyl N-[5-[6-[cyanomethyl-(4-fluoro-3-methoxy-benzoyl)amino]imidazo[1,2-a]pyridin-3-yl]-2-pyridyl]carbamate]		≥ 80	
COC(=O)Nc1ccc(-c2cnc3c(C)cc(N(C)C(=O)c4ccc(C#N)c(F)c4)cn23)cn1 [Compound 4, methyl N-[5-[6-[(4-cyano-3-fluoro-benzoyl)-methyl-amino]-8-methyl-imidazo[1,2-a]pyridin-3-yl]-2-pyridyl]carbamate]		≥ 80	
COC(=O)Nc1ccc(-c2cnc3c(C)cc(N(C)C(=O)c4ccc(C#N)c(C)c4)cn23)cn1 [Compound 2, methyl N-[5-[6-[(4-cyano-3-methyl-benzoyl)-methyl-amino]-8-methyl-imidazo[1,2-a]pyridin-3-yl]-2-pyridyl]carbamate]		≥ 80	
COC(=O)Nc1ccc(-c2cnc3c(C)cc(N(C)C(=O)c4ccccc4C(=O)OC)cn23)cn1 [Compound 40]	≥ 80		
COC(=O)Nc1ccc(-c2cnc3ccc(N(C)C(=O)c4ccc(F)c(F)c4)cn23)cn1 [Compound 22, methyl N-[5-[6-[(3,4-difluorobenzoyl)-methyl-amino]imidazo[1,2-a]pyridin-3-yl]-2-pyridyl]carbamate]	≥ 80	≥ 80	
CCOc1cc(C(=O)N(C)c2cc(C)c3ncc(-c4ccc(NC(=O)OC)nc4)n3c2)ccc1F [Compound 19, methyl N-[5-[6-[(3-ethoxy-4-fluoro-benzoyl)-methyl-amino]-8-methyl-imidazo[1,2-a]pyridin-3-yl]-2-pyridyl]carbamate]	≥ 80	≥ 80	
COC(=O)Nc1ccc(-c2cnc3c(C)cc(N(C)C(=O)c4ccc(C#N)nc4)cn23)cn1 [Compound 51, methyl N-[5-[6-[(6-cyanopyridine-3-carbonyl)-methyl-amino]-8-methyl-imidazo[1,2-a]pyridin-3-yl]-2-pyridyl]carbamate]	≥ 80		
COC(=O)Nc1ccc(-c2cnc3c(C)cc(N(C)C(=O)c4cnc(F)c(C)c4)cn23)cn1 [Compound 43, methyl N-[5-[6-[(6-fluoro-5-methyl-pyridine-3-carbonyl)-methyl-amino]-8-methyl-imidazo[1,2-a]pyridin-3-yl]-2-pyridyl]carbamate]	≥ 80	≥ 80	
COC(=O)Nc1ccc(-c2cnc3c(C)cc(N(C)C(=O)c4cccc(OC)n4)cn23)cn1 [Compound 37, methyl N-[5-[6-[(6-methoxypyridine-2-carbonyl)-methyl-amino]-8-methyl-imidazo[1,2-a]pyridin-3-yl]-2-pyridyl]carbamate]	≥ 80		
COC(=O)Nc1ccc(-c2cnc3ccc(N(CC#N)C(=O)c4ccc(F)cc4)cn23)cn1 [Compound 6, methyl N-[5-[6-[cyanomethyl-(4-fluorobenzoyl)amino]imidazo[1,2-a]pyridin-3-yl]-2-pyridyl]carbamate]		≥ 80	
COC(=O)Nc1ccc(-c2cnc3ccc(N(C)C(=O)c4ccc(F)c(C)c4)cn23)cn1 [Compound 21, methyl N-[5-[6-[(4-fluoro-3-methyl-benzoyl)-methyl-amino]imidazo[1,2-a]pyridin-3-yl]-2-pyridyl]carbamate]	≥ 80	≥ 80	
